Experimental data as given in US20250199015A1, “CYCLIN-DEPENDENT KINASE 2 INHIBITORS FOR MEDICAL TREATMENT” (INCYCLIX BIO, LLC, priority 2022, published 2025).
pIC50: −log10 of the molar value. ≈ marks a conversion by molar mass, not a printed value. Where two headings read alike, the source gives them in different places.

How the values were obtained:
[1] = test system: pRb (S780) in therapy-resistant T47D/MCF7M cells; test: Western blot Rb phosphorylation in therapy-resistant cells; format: cell-based, human; details: combined with a CDK4/6i and/or estrogen therapy, 7 days
Protocol: Retinoblastoma (Rb) phosphorylation status analysis was then conducted in therapy-resistant cells by Western blotting. The T47D human breast carcinoma cell line was grown in RPMI-1640/1× Glutamax/1× Insulin/10% fetal bovine serum and was plated in Corning 6 well tissue culture treated plates. Cells were incubated at 37° C. for 24 hours prior to addition of treatment. Treatments were either DMSO, Compound I, or abemaciclib alone, or Compound I in combination with abemaciclib. Cells were treated for 7 days. All Abemaciclib treated cells received 500 nM Abemaciclib. […] Supernatant was removed, pellet resuspended in 250 μL of 1× Cell Lysis buffer (CST #9803, 1 tablet of PhosSTOP, 1 tablet of complete Protease Inhibitor Cocktail in 5 mL) then incubated on ice for 20 mins. Lysate was centrifuged at 21,000×g for 20 min at 4° C. and supernatant transferred to clean tubes. A DC assay was performed to determine the protein concentration of each lysate. 20 μg of protein was mixed with Laemelli buffer (+5% BME) before being run on homemade 15% gels. For samples normalized to cell number (p-RB and total RB), cells were washed in ice-cold PBS. Cells were counted and 500,000 cells were aliquoted into clean tubes. Cells were centrifuged at 500×g for 4 mins at 4° C. and supernatant discarded. Cell pellets were directly lysed in 100 μL of Laemmli buffer (+5% BME) and boiled at 95° C. for 12 min. […]

[2] = Approximate solvent solubility of free base; format: physicochemical
Protocol: The following procedure was carried out: 25, 50 and 100 μL aliquots of the appropriate solvent system was added to 20 mg of free base. The experiments were checked for dissolution. Where dissolution was not observed, the experiments were stirred at 40° C. to check for dissolution at elevated temperature. Aliquots of solvent were added until dissolution was observed, or 2 mL of total solvent was added. Any clear solutions were uncapped and allowed to evaporate at ambient temperature (ca. 20° C.) and pressure. Any slurries were isolated by centrifugation and the solids were analyzed by XRPD.

MATE1 = MATE1 (Homo sapiens, UniProt Q96FL8); test: SLC transporter inhibition in HEK293 cells
Chain of MATE1 (Q96FL8 whole entry): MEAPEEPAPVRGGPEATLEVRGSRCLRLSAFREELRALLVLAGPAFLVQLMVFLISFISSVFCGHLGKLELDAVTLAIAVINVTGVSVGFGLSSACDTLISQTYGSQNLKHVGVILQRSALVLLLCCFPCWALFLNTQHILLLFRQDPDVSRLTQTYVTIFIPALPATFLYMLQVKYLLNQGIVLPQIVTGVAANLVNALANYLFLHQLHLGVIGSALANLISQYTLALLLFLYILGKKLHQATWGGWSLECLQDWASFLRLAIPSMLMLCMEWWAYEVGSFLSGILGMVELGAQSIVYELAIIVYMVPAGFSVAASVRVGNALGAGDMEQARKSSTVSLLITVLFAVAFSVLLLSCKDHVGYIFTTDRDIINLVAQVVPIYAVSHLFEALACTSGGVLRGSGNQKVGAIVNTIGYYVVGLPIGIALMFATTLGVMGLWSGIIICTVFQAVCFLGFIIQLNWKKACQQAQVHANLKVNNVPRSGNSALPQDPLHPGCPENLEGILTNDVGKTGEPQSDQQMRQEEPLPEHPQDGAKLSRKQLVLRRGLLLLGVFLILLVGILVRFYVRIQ

OVCAR-3 cells = test: Cell cycle by EdU flow cytometry (dose, time, washout, tracing); format: cell-based, human
Protocol: Cells were plated at 100,000 cells/well in Corning 6 cm tissue culture treated plates. […] Cells were collected and fixed in 1% paraformaldehyde. Cells were incubated with Alexa488 azide dye as described by Thermo Scientific. Cells were then incubated with Fxcycle-violet and RNase. Cells were analyzed on a BD Celesta and data compiled using FloJo and GraphPad.
The OVCAR3 human ovarian carcinoma cell line was grown in RPMI-1640/1× Glutamax/1× Insulin/10% fetal bovine serum and was plated at 300,000 cells/well in Corning 6 cm tissue culture treated plates. […] Cells were treated for the indicated amount of time (24 hours or 48 hours), with 10 μM EdU added for the last hour of treatment. Cells were collected and fixed in 1% paraformaldehyde. Cells were incubated with Alexa 488 (A488) azide dye as described by Thermo Scientific. Cells were then incubated with FarRed dye and RNase. Cells were analyzed on a BD Celesta and data compiled using FloJo and GraphPad Prism (FIG. 13A-B).
The OVCAR3 human ovarian carcinoma cell line was grown in RPMI-1640/1× Glutamax/1× Insulin/10% fetal bovine serum and was plated at 300,000 cells/well in Corning 6 cm tissue culture treated plates. […] At 24 hours, the remaining plates were rinsed with media before un-treated media was added back. Cells were collected at the indicated times, with 10 μM EdU added for the last hour (FIG. 14A). Cells were collected and fixed in 1% paraformaldehyde. Cells were incubated with Pacific blue azide dye as described by Thermo Scientific. Cells were then incubated with FarRed dye and RNase. Cells were analyzed on a BD Celesta and data compiled using FloJo and GraphPad. […] By 18 hours, OVCAR-3 cells were in G2 or reentering G1. Cells appeared to remain somewhat synchronized over 48 hours.
The OVCAR3 human ovarian carcinoma cell line was grown in RPMI-1640/1× Glutamax/1× Insulin/10% fetal bovine serum and was plated at 300,000 cells/well in Corning 6 cm tissue culture treated plates. […] Cells were divided into two sets. The first set was treated for the indicated amount of time, with 10 μM EdU added for the last hour of treatment before being collected. The second set of cells were treated for the indicated amount of time and had EdU added for one hour before the timepoint. Then the media was aspirated, the cells washed, and re-treated with treatment media. The second set of cells was collected at 48 hours, allowing for tracing of the EdU positive cells. Cells were collected and fixed in 1% paraformaldehyde. Cells were incubated with Alexa 488 (A488) azide dye as described by Thermo Scientific. Cells were then incubated with FarRed dye and RNase. Cells were analyzed on a BD Celesta and data compiled using FloJo and GraphPad. […] Several “snap shots” of cells at various timepoints, followed by where the cells from S phase ended up at the end of 48 hours of treatment, were collected. […] It appears that the cells in S phase at after 6 hours of treatment are arresting in G1 (FIG. 15B). At 24 hours of treatment, little to no cells were in S phase so there were no cells to trace (FIG. 15C). Although the DMSO sample appears largely different at 48 hours, the distribution appears similar to the DMSO, EdU free cells at 48 hours. […] (FIG. 15D).

With NS(=O)(=O)c1ccc(Nc2ncc3cc4n(c3n2)C2(CCCCC2)C(=O)NN4)cc1 [Compound I] the “Rb phosphorylation in therapy-resistant cells” value [1] was “prevents the phosphorylation”, the Solubility ([2]; 2-Methyl-THF) was under 10000 µg/mL and the Solubility ([2]; 2-Propanol) was under 10000 µg/mL. It also gave a Solubility ([2]; 2-Propanol:Water (80:20 % v/v)) of under 10000 µg/mL, a Solubility ([2]; Acetone) of under 10000 µg/mL and a Solubility ([2]; Anisole) of under 10000 µg/mL. It also gave a Solubility ([2]; Ethanol) of under 10000 µg/mL, a Solubility ([2]; Ethyl Acetate) of under 10000 µg/mL and a Solubility ([2]; Methylethyl Ketone) of under 10000 µg/mL. It also gave a Solubility ([2]; N,N-dimethylacetamide, organic solvent or mixture, thermodynamic from solid, read-out: Solubility) of 22000 µg/mL (≈ 51.5 mM), a Solubility ([2]; Tetrahydrofuran) of under 10000 µg/mL and a Solubility ([2]; Toluene) of under 10000 µg/mL. For the same compound, the Solubility ([2]; dimethylsulfoxide, organic solvent or mixture, thermodynamic from solid, read-out: Solubility) was 88000 µg/mL (≈ 206 mM), the pIC50 (MATE1; MATE1 IC50) was 4.88 and the inhibition at 20 μM (MATE1; human, HEK293 cells expressing MATE1, probe metformin (10 μM)) was 62%. The “cell cycle distribution with increasing concentrations” value (OVCAR-3 cells; 10 nM to 10 μM, 24 hours) was “exit the S-phase and increasingly occupy the G0-G1 phase”, the “G1 arrest over 48 h” value (OVCAR-3 cells; 100 nM) was “does not arrest all cells in G1” and the “G1 arrest over 48 h” value (OVCAR-3 cells; 300 nM) was “performs just as well”. For the same compound, the “cells arrested in G1” value (OVCAR-3 cells; 300 nM, 24 hours) was “Approximately 80%”, the “cells proceeding to S phase compared with PF-07104091” value (OVCAR-3 cells; 1, 6, 24 and 48 hours of treatment) was “permits fewer cells to proceed to S phase” and the “fate of cells in S phase at treatment initiation (EdU tracing)” value (OVCAR-3 cells; traced to 48 hours) was “become arrested in G1”.
